Converted amounts (≈) assume the structure as drawn. Like-named read-outs stand apart in the source and are kept apart here.
How the values were obtained:
[1] = Solubility in phosphate buffered saline pH 7.4 at room temperature; type: physicochemical; conditions: PBS pH 7.4, room temperature; for solubility: phosphate buffered saline, aqueous buffer, thermodynamic from solid
Description: This example describes the solubility of three non-natural amino acids comprising tetrazine functional groups in phosphate buffered saline solution, with a pH of 7.4 (PBS). The example also illustrates and discusses the useful increased solubility of the pyridyl tetrazine amino acids provided herein when compared to a phenyl tetrazine-comprising non-natural amino acid of the art.
A suspension of AB 4091 was formed by adding 1.8 mg of AB 4091 to 5 mL of PBS. The suspension was vortexed for five minutes and sonicated for two minutes. Suspended particles remained. Additional PBS was added to the suspension in small portions, with vortexing, to reach a total volume of 25 mL of PBS. This mixture remained cloudy after shaking overnight at room temperature and turned clear following the addition of 2 mL of PBS with vortexing. Clarity of the solution was determined by visual inspection.
A solution of compound (9) was formed by adding 8.3 mg of compound (9) to 200 μL of PBS to form a homogeneous solution. An additional 11.5 mg of compound (9) was added to this solution, in small portions, over a period of 20 minutes, with vortexing. The solution remained clear after vortexing, with no particulates or cloudiness observed. The maximum solubility of compound (9) was not reached, due to its high solubility and the limited amount of the compound available.
A solution of compound (6) was formed by adding 8.7 mg of compound (6) to 200 μL of PBS to form a homogenous solution. An additional 26.9 mg of compound (6) was added to this solution, in small portions, over a period of 25 minutes, with vortexing. The solution remained clear after vortexing, with no particulates or cloudiness observed. The maximum solubility of compound (6) was not reached, due to its high solubility and the limited amount of the compound available.

tRNA synthetase 2A9 = target: T1, tRNA synthetase 2A9 (Methanocaldococcus jannaschii, UniProt Q57834, D158G/H70A/L162S/L65V/Q109S/Y32G); test: Cell-free GFP (K49TAG) expression assay: incorporation of non-natural amino acid by tRNA synthetase 2A9; type: biochemical, Methanococcus jannaschii; conditions: 2-4 μM 2A9, compound of formula 6 at 1 mM, 30° C., 12 h, ex 476 nm / em 510 nm
T1 construct: made in house
Description: (§1) This example provides two novel tRNA synthetases useful with tetrazine-containing amino acids described herein. These two synthetases, designated “2A2” (SEQ ID NO: 4) and “2A9” (SEQ ID NO: 5) were produced by mutagenesis of wild-type tyrosyl-tRNA synthetase (TyrRS) from Methanococcus jannaschii (SEQ ID NO:3). Mutagenesis was performed by assembling overlapping oligonucleotides encoding the mutations by polymerase chain reaction (PCR). Mutants were screened utilizing the green fluorescent protein expression assay described below.
(§2) The ability of the novel tRNA synthetases to incorporate modified amino acids into a polypeptide was evaluated in cell-free protein synthesis reactions comprising DNA encoding SUPERFOLDER green fluorescent protein (GFP). The codon encoding position 49 of the GFP polypeptide, which normally encodes a lysine residue, was substituted with an amber stop codon (TAG). Full-length GFP is expressed only if the novel tRNA synthetases incorporate s modified amino acid into the polypeptide chain. The level of expression of full-length GFP can be evaluated by measuring fluorescence.
(§3) The GFP DNA containing the TAG stop codon was expressed in cell-free protein synthesis reactions as described in Zawada et al., 2011, Biotechnol. Bioeng. […]

tRNA synthetase 2A2 = target: T2, tRNA synthetase 2A2 (Methanocaldococcus jannaschii, UniProt Q57834, D158V/F108W/H70A/I159A/L162V/L65V/Q109S/Y32L); test: Cell-free GFP (K49TAG) expression assay: incorporation of non-natural amino acid by tRNA synthetase 2A2; type: biochemical, Methanococcus jannaschii; conditions: 4 μM 2A2, compound of formula 9 at 4 mM, 30° C., 12 h, ex 476 nm / em 510 nm
T2 construct: made in house
Description: as §1, §2, §3

[2] = solution remained clear, read-out: final concentration achieved (maximum solubility not reached)

T1 sequence (Q57834 whole entry Y32G/L65V/H70A/Q109S/D158G/L162S): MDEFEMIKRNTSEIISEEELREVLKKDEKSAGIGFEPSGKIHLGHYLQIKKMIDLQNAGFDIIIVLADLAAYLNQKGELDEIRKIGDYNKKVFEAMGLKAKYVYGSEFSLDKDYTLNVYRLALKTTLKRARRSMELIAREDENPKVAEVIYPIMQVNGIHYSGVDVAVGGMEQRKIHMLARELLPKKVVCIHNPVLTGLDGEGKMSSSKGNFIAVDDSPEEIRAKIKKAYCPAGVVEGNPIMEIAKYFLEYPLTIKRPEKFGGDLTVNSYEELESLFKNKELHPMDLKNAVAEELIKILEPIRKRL
T2 sequence (Q57834 whole entry Y32L/L65V/H70A/F108W/Q109S/D158V/I159A/L162V): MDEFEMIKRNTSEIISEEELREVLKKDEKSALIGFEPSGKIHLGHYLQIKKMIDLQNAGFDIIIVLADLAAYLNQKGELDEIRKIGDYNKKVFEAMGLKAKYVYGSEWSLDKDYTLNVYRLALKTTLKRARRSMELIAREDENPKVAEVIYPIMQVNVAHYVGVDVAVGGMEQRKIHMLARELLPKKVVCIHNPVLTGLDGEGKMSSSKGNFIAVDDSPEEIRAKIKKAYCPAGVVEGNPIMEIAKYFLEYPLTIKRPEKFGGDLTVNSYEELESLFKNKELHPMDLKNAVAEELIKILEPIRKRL

SMILES | solubility ([1]; clarity by visual inspection, read-out: solubility) | GFP fluorescence compared with native GFP positive control (tRNA synthetase 2A9) | solubility relative to the solubility of AB 4091 [1] | solubility [1, 2] | GFP fluorescence compared with native GFP positive control (tRNA synthetase 2A2)
Cc1nnc(Nc2ccc(CC(N)C(=O)O)cc2)nn1 (stereo not shown) [AB 4091, reference compound] | ~0.215 mM (≈ 0.059 mg/mL) | – | – | – | –
Cc1nnc(Nc2ccc(C[C@H](N)C(=O)O)cn2)nn1 [compound (6)] | – | approaches that of native GFP | over 3000 fold | ≥ 647 mM | –
Cc1nnc(NCc2ccc(C[C@H](N)C(=O)O)nc2)nn1 [compound (9)] | – | – | over 1600 fold | ≥ 342 mM | approximately equivalent to that of native GFP

From US9840493B2, “Modified amino acids comprising tetrazine functional groups, methods of preparation, and methods of their use” (SUTRO BIOPHARMA, INC., priority 2013, dated 2017)
